Test results reported in article PMC6829466 (International Journal of Molecular Sciences, 2019).
Like-named read-outs stand apart in the source and are kept apart here.

Tests used:
[1] = Cytotoxicity, MTT assay in CEM-T4 cells; conditions: human
Protocol: (§1) Evaluation of anti-HIV activity consisted of measurements of p24 antigen using the Genscreen ULTRA HIV Ag-Ab Kit. […] We included betulin and betulinic acid in our studies in order to broaden the structure-activity study. BVM, the first HIV-1 maturation inhibitor, was applied as a reference compound.
For the determination of compounds cytotoxicity, CEM-T4 cells were obtained from the NIH AIDS Reagent Program (NIH, US) and were cultured in RPMI supplemented with 10% FCS (Biochrom) and antibiotics at 37 °C in 5% CO2 on 96-well culture plates. […] Cultures in a neat medium (RPMI, 10% FCS) were used as a control. Viability of cells was determined after 7 days using the MTT assay in which 10 μL of MTT solution (5 mg/mL) was added to each culture plate well, and cultures were incubated for 3 h at a temperature of 37 °C. After the centrifugation, the supernatant was removed, and DMSO was added for lysis of the cells and to dissolve crystals of formazan. Color intensity was measured with a plate reader at 560 nm. Cell viability was determined by the Equation (1):Viability (%) = (OD of samples enriched in test drugs/OD of control samples) × 100(1) where OD means optical density.
Based on the calculations, a graph was created regarding the relationship between the concentration of the compound and the viability from which CC50 was established.

[2] = tested on: HIV-1; assay: microbe, parasite or virus in culture; conditions: for TI (selectivity index): HIV-infected CEM-T4 cell line
Protocol: as §1
CEM-T4 cells were preincubated (culture plates with 96 flat bottom wells) for 24 h under standard conditions (37 °C, 5% CO2) and in a standard medium (RPMI, FCS 10%) enriched with tested compounds in the concentration range from 0.02 µM to 10 µM. In each well, 20,000 cells were suspended in the solution of a tested compound (200 μL). For each concentration, cultures were run in triplicate. A wild-type HIV-1 was isolated from the HIV-positive patient in the Laboratory of Virology of the National Medicines Institute (Warsaw, Poland) and was used as a reference. A culture of CEM-T4 lines in a standard neat medium (RPMU, FCS 10%) was used to produce viruses. After 24 h of incubation in a medium enriched with a tested compound, cells were inoculated with a known amount of HIV, and after 7 days, HIV replication was evaluated through the measurement of secreted viral protein p24 carried out with the enzyme-linked immunosorbent assay (ELISA) technique. For each tested compound and for each concentration, the measurements of p24 antigen were done in triplicate using the Genscreen ULTRA HIV Ag-Ab Kit (Biorad, Warszawa, Poland) and following manufacturer’s instructions. The absorbance of the sample was determined as an OD measured at 650 nm. HIV replication capacity was calculated using the Equation (2):Virus replication (%) = (OD of drug-enriched samples/OD of control samples) × 100(2)
The results were presented by a graph showing the ratio of HIV replication to the concentration of the tested preparation.

[3] = tested on: HIV; conditions: cited from earlier work
[4] = tested on: HIV-1; set-up: method as in PMID 8176401; conditions: inhibiting HIV-1 replication; cited from earlier work
[5] = Human immunodeficiency virus 1, CEM-T4, 168 h, wild-type HIV-1 in CEM-T4 cells, p24 antigen, 7 days, 50% inhibition of replication
[6] = wild-type HIV-1 in CEM-T4 cells, p24 antigen, 7 days, 50% inhibition of replication

With CCOP(=O)(C=C(C)C1CCC2(C(=O)O)CCC3(C)C(CCC4C5(C)CCC(OC(=O)CC(C)(C)CC(=O)O)C(C)(C)C5CCC43C)C12)OCC (stereo not shown) [Compound 13b] the CC50 at 7 days [1] was greater than 68 µM, the “TI (selectivity index)” value [2] was greater than 8 and the IC50 [2, 5] was 8.8 ± 1.7 µM.

For C=C(CP(=O)(OCC)OCC)C1CCC2(C(=O)O)CCC3(C)C(CCC4C5(C)CCC(OC(=O)CCC(C)(C)C(=O)O)C(C)(C)C5CCC43C)C12 (stereo not shown) [Compound 14c], the CC50 at 7 days [1] was greater than 68 µM, the “TI (selectivity index)” value [2] was greater than 68 and the IC50 [2, 5] was 1 ± 0.17 µM.

Compound CCOP(=O)(C=C(C)C1CCC2(C(=O)O)CCC3(C)C(CCC4C5(C)CCC(OC(=O)CCC(C)(C)C(=O)O)C(C)(C)C5CCC43C)C12)OCC (stereo not shown) [Compound 13c] has a CC50 at 7 days [1] greater than 68 µM and an IC50 [2, 5] greater than 10 µM.

Work on C=C(COP(=O)(OCC)OCC)C1CCC2(C(=O)O)CCC3(C)C(CCC4C5(C)CCC(O)C(C)(C)C5CCC43C)C12 (stereo not shown) [Compound 9] yielded a CC50 at 7 days [1] of 18 ± 1.79 µM and an IC50 [2, 5] greater than 10 µM.

In the case of C=C(C)C1CCC2(C(=O)O)CCC3(C)C(CCC4C5(C)CCC(OC(=O)CC(C)(C)CC(=O)O)C(C)(C)C5CCC43C)C12 (stereo not shown) [3′,3′-dimethylglutarylbetulinic acid], the EC50 ([3]; literature reports) is given as 0.0023 µM.

In the case of C=C(CP(=O)(OCC)OCC)C1CCC2(C(=O)O)CCC3(C)C(CCC4C5(C)CCC(OC(=O)CC(C)(C)CC(=O)O)C(C)(C)C5CCC43C)C12 (stereo not shown) [Compound 14b], the CC50 at 7 days [1] is reported as greater than 68 µM, the “TI (selectivity index)” value [2] is reported as greater than 75 and the IC50 [2, 5] is reported as 0.9 ± 0.12 µM.

Work on C=C(CP(=O)(OCC)OCC)C1CCC2(C(=O)O)CCC3(C)C(CCC4C5(C)CCC(OC(=O)CC(C)(C)C(=O)O)C(C)(C)C5CCC43C)C12 (stereo not shown) [Compound 14a] yielded a CC50 at 7 days [1] greater than 68 µM.

For 3,28-di(dimethylglutaryl)betulin, the EC50 [3] is listed as 0.00066 µM.

For C=C(C)[C@@H]1CC[C@]2(C(=O)O)CC[C@]3(C)[C@H](CC[C@@H]4[C@@]5(C)CC[C@H](OC(=O)CC(C)(C)C(=O)O)C(C)(C)[C@@H]5CC[C@]43C)[C@@H]12 [bevirimat, 3-O-(3′,3′-dimethylsuccinyl) betulinic acid, reference compound], the CC50 at 7 days ([1]; CEM-T4 cells) is given as 29 ± 2.43 µM, the IC50 ([2]; Human immunodeficiency virus 1, CEM-T4, 168 h) is given as 0.03 ± 0.009 µM and the EC50 ([3]; literature reports) is given as 0.00035 µM.

In the case of C=C(COP(=O)(OCC)OCC)C1CCC2(C(=O)O)CCC3(C)C(CCC4C5(C)CCC(OC(=O)CC(C)(C)C(=O)O)C(C)(C)C5CCC43C)C12 (stereo not shown) [Compound 12a], the CC50 at 7 days [1] is reported as 52 ± 1.07 µM, the “TI (selectivity index)” value [2] is reported as 52 and the IC50 [2, 5] is reported as less than 2 µM. It also gave an IC50 [2, 6] of 1 ± 0.33 µM.

For C=C(C)[C@@H]1CC[C@]2(C(=O)O)CC[C@]3(C)[C@H](CC[C@@H]4[C@@]5(C)CC[C@H](O)C(C)(C)[C@@H]5CC[C@]43C)[C@@H]12 [betulinic acid, 3β-hydroxy-20(29)-lupaene-28-oic acid, reference compound], the CC50 at 7 days [1] is given as 5 ± 2.44 µM, the IC50 [2, 5] is given as greater than 10 µM and the EC50 [4] is given as 1.6 µM.

In the case of CCOP(=O)(C=C(C)C1CCC2(C(=O)O)CCC3(C)C(CCC4C5(C)CCC(O)C(C)(C)C5CCC43C)C12)OCC (stereo not shown) [Compound 10, 29-Diethoxyphosphorylbetulinic acid], the CC50 at 7 days [1] is reported as 80 ± 1.3 µM, the “TI (selectivity index)” value [2] is reported as less than 8 and the IC50 [2, 5] is reported as greater than 10 µM.

For C=C(COP(=O)(OCC)OCC)C1CCC2(C(=O)O)CCC3(C)C(CCC4C5(C)CCC(OC(=O)CCC(C)(C)C(=O)O)C(C)(C)C5CCC43C)C12 (stereo not shown) [Compound 12c], the CC50 at 7 days [1] was 64 ± 1.84 µM, the “TI (selectivity index)” value [2] was 16 and the IC50 [2, 5] was 4 ± 1.65 µM.

For C=C(COP(=O)(OCC)OCC)C1CCC2(C(=O)O)CCC3(C)C(CCC4C5(C)CCC(OC(=O)CC(C)(C)CC(=O)O)C(C)(C)C5CCC43C)C12 (stereo not shown) [Compound 12b], the CC50 at 7 days [1] was 28 ± 1.64 µM, the “TI (selectivity index)” value [2] was 47 and the IC50 [2, 5] was 0.6 ± 0.04 µM.

Work on C=C(C)[C@@H]1CC[C@]2(CO)CC[C@]3(C)[C@H](CC[C@@H]4[C@@]5(C)CC[C@H](O)C(C)(C)[C@@H]5CC[C@]43C)[C@@H]12 [betulin, lup-20(29)-ene-3β,28-diol, reference compound] yielded a CC50 at 7 days [1] of 46 ± 3.01 µM and an IC50 [2, 5] greater than 10 µM.

In the case of CCOP(=O)(C=C(C)C1CCC2(C(=O)O)CCC3(C)C(CCC4C5(C)CCC(OC(=O)CC(C)(C)C(=O)O)C(C)(C)C5CCC43C)C12)OCC (stereo not shown) [Compound 13a], the CC50 at 7 days [1] is reported as greater than 68 µM, the “TI (selectivity index)” value [2] is reported as greater than 35 and the IC50 [2, 5] is reported as less than 2 µM. The IC50 [2, 6] was 2 ± 0.72 µM.

For C=C(CP(=O)(OCC)OCC)C1CCC2(C(=O)O)CCC3(C)C(CCC4C5(C)CCC(O)C(C)(C)C5CCC43C)C12 (stereo not shown) [Compound 11, 30-Diethoxyphosphorylbetulinic Acid], the CC50 at 7 days [1] was greater than 42 µM and the IC50 [2, 5] was greater than 10 µM.
